This passage reports TGI results from PubChem BioAssay (NCI).

Test in all cases: NCI anticancer screen, dose series, 48 h
For experiment [1], the system named is LOX IMVI melanoma.
In experiment [2] the test system is RXF 393 renal.
In experiment [3] the test system is EKVX NSCLC.
The subject of experiment [4] is COLO 205 colon.
Experiment [5] deals with K-562 leukemia.
Experiment [6] concerns SK-MEL-5 melanoma.
The subject of experiment [7] is SF-268 CNS.
Experiment [8] relates to SF-539 CNS.
For experiment [9], the system named is HCT-15 colon.
Experiment [10] deals with MDA-MB-231 breast.
Experiment [11] deals with SN12C renal.
In experiment [12] the test system is KM12 colon.
Experiment [13] concerns CAKI-1 renal.
Experiment [14] deals with ACHN renal.
The subject of experiment [15] is OVCAR-3 ovarian.
In experiment [16] the test system is HCT-116 colon.
Experiment [17] concerns UO-31 renal.
For experiment [18], the system named is HL-60(TB) leukemia.

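A five-concentration, 48-hour dose response in 96-well plates underlies each endpoint, interpolated linearly between surrounding concentrations. TGI: concentration producing complete growth inhibition.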

Take `Cc1cccc2c(=O)c3c(O)cc(O)cc3[nH]c12`: the TGI in [1], in experiment [2], in [3], in experiment [4], in [5] and in experiment [6] was greater than 10 µM throughout. In addition, the TGI in experiment [7], in experiment [8], in [9], in experiment [10], in [11] and in experiment [12] was greater than 10 µM throughout. Further, the TGI in experiment [13], in experiment [14], in experiment [15], in experiment [16] and in experiment [17] was greater than 10 µM throughout.

In the case of `COc1cc(/C=C/C(=O)OC2C(O)C3CC(OC(=O)c4cc(OC)c(OC)c(OC)c4)CC2N3C)cc(OC)c1OC` (stereo not given), the TGI in experiment [1] was greater than 50 µM; in [2], greater than 50 µM; in experiment [3], greater than 50 µM; in experiment [4], 42.5 µM; in [5], greater than 50 µM; in experiment [6], greater than 50 µM. The TGI in experiment [7], in experiment [8], in [9], in [10], in experiment [11] and in experiment [12] was greater than 50 µM in each case. In addition, the TGI in experiment [13], in [14], in experiment [15], in experiment [16] and in experiment [17] was greater than 50 µM each time.

On to `CC(C)(C)[Si](C)(C)OCC1OC(n2ccc(=O)[nH]c2=O)C(O[Si](C)(C)C(C)(C)C)[C@@]12O[C@H]2C(N)=O` (stereo not given in full), for which the TGI turned out to be 18.1 µM in [1]; 34.4 µM in [3]; 24.8 µM in experiment [4]; 16.5 µM in [6]; 28.2 µM in experiment [7]; 13.4 µM in experiment [8]. Moreover, the TGI is 28.4 µM in [9]; 21.7 µM in [10]; greater than 100 µM in experiment [18]; 30.3 µM in experiment [11]; 44.2 µM in [12]; 28.2 µM in experiment [13]. For the same molecule, the TGI turned out to be 16.5 µM in experiment [14], 25.9 µM in [15], 22.1 µM in experiment [16] and 19.6 µM in [17].

Consider `COC(=O)C1CC=C(SC(=O)c2ccccc2)N1C(=O)c1ccccc1` (stereo not given), for which the TGI in experiment [2], in [3], in experiment [4], in experiment [5], in experiment [6] and in experiment [7] was greater than 100 µM each time. Further, the TGI in experiment [9], in experiment [10], in experiment [12], in experiment [13], in [14] and in experiment [15] was greater than 100 µM each time. In addition, the TGI in experiment [16] and in [17] was greater than 100 µM in each case.

For the molecule `C=CN1C(=O)OC[C@@H]1c1ccccc1`, the TGI in [1], in experiment [2], in [3], in experiment [4], in [5] and in experiment [6] was greater than 100 µM in each case. Further, the TGI in experiment [7], in experiment [8], in experiment [9], in experiment [18], in experiment [11] and in experiment [12] was greater than 100 µM each time. For the same molecule, the TGI in experiment [13], in experiment [14], in experiment [15], in experiment [16] and in [17] was greater than 100 µM throughout.

For the molecule `C/C(=N\NC(=S)NC1CCCC1)c1ccccn1`, the TGI is 17.8 µM in experiment [1]; 29.1 µM in experiment [2]; greater than 100 µM in experiment [3]; 26.8 µM in [4]; 13.2 µM in experiment [6]; greater than 100 µM in [7]. For the same molecule, the TGI in [8] is 7.52 µM; in experiment [9], greater than 100 µM; in experiment [10], greater than 57.2 µM; in [11], greater than 100 µM; in experiment [12] it was greater than 83.2 µM; in experiment [13], greater than 100 µM. Besides, the TGI is 20.1 µM in experiment [14], 10.3 µM in [15], 3.48 µM in experiment [16] and 22.3 µM in experiment [17].

Take `C=CC(C)(C)C(=C)C(=O)N(C)c1ccccc1I`: the TGI in [1], in experiment [2], in [3], in [4], in experiment [5] and in experiment [6] was greater than 100 µM in each case. Moreover, the TGI in [7], in experiment [9], in experiment [10], in experiment [11], in experiment [12] and in experiment [13] was greater than 100 µM in each case. In addition, the TGI in experiment [14], in experiment [15], in [16] and in experiment [17] was greater than 100 µM each time.

For the molecule `COC(=O)C12OC(C)(C(CC(=O)OC(C)(C)C)C1=O)C1C(=O)N(c3ccccc3)C(=O)C12` (stereo not given), the TGI in experiment [1], in experiment [2], in [4], in experiment [5], in [6] and in [7] was greater than 100 µM in each case. The TGI in [9], in experiment [10], in experiment [11], in experiment [12], in [13] and in [14] was greater than 100 µM throughout. Further, the TGI in [15], in experiment [16] and in experiment [17] was greater than 100 µM in each case.

Take `COc1cc(Cl)cc(N(O)C(C)=O)c1OCc1ccccc1`: the TGI in experiment [1], in experiment [2], in [3], in [4], in experiment [5] and in experiment [6] was greater than 100 µM in each case. Besides, the TGI in experiment [7], in experiment [8], in [9], in experiment [18], in experiment [11] and in experiment [12] was greater than 100 µM in each case. Moreover, the TGI in [13], in experiment [14], in experiment [15], in experiment [16] and in [17] was greater than 100 µM each time.

Consider `CCN(CC)c1ccc(C2SCC(=O)N2c2ccc(NC(=O)c3ccc(N4C(=O)CSC4c4ccc(N(CC)CC)cc4)cc3)cc2)cc1` (stereo not given), for which the TGI in [1], in experiment [2], in experiment [3], in [4], in experiment [5] and in experiment [6] was greater than 100 µM in each case. The TGI in experiment [7], in experiment [8], in experiment [9], in experiment [10], in experiment [11] and in experiment [12] was greater than 100 µM each time. The TGI in [13], in experiment [14], in experiment [15], in experiment [16] and in experiment [17] was greater than 100 µM each time.

Take `COc1ccc(C(=O)c2sc(Nc3ccccc3)nc2N)cc1`: the TGI in [1], in [2], in experiment [3], in [5], in [6] and in experiment [7] was greater than 100 µM each time. For the same molecule, the TGI in experiment [8], in experiment [9], in experiment [10], in [11], in [14] and in [15] was greater than 100 µM in each case. In addition, in experiment [17], the TGI was greater than 100 µM.

With `O=C1C=CC(=O)c2c(NCC3CC3)ccc(NCC3CC3)c21`, the TGI in experiment [1] was 43 µM; in experiment [3] it was greater than 100 µM; in experiment [4], 41.4 µM; in experiment [5], 53.9 µM; in [6], 52 µM; in experiment [8], greater than 100 µM. Further, the TGI in experiment [9] was greater than 100 µM; in [10], greater than 100 µM; in experiment [18], 31.8 µM; in experiment [11], greater than 100 µM; in experiment [12], greater than 100 µM; in experiment [14] it was greater than 100 µM. The TGI in experiment [15] was 63.4 µM; in experiment [16], greater than 100 µM; in experiment [17], greater than 100 µM.

On to `CCC(CC)n1cc(C(=O)NC(=O)NCCCCCOC(=O)CCCCCCCCCCC(=O)OCCCCCNC(=O)NC(=O)c2cn(C(CC)CC)c(=O)[nH]c2=O)c(=O)[nH]c1=O`, for which the TGI in experiment [1], in experiment [2], in experiment [3], in experiment [4], in experiment [5] and in experiment [6] was greater than 100 µM in each case. Besides, the TGI in experiment [7], in experiment [8], in [9], in experiment [18], in [11] and in experiment [12] was greater than 100 µM throughout. For the same molecule, the TGI in experiment [13], in experiment [14], in [15], in [16] and in [17] was greater than 100 µM in each case.

With `N#CCC(=O)c1cc(OCc2cc(OCc3ccc(Br)cc3)cc(OCc3ccc(Br)cc3)c2)cc(OCc2cc(OCc3ccc(Br)cc3)cc(OCc3ccc(Br)cc3)c2)c1`, the TGI in experiment [3], in [4], in [5], in experiment [6], in experiment [7] and in experiment [9] was greater than 100 µM throughout. For the same molecule, the TGI in experiment [10], in experiment [11], in experiment [12], in experiment [13], in [14] and in experiment [15] was greater than 100 µM in each case. Further, the TGI in experiment [16] and in [17] was greater than 100 µM throughout.

In the case of `c1ccc(-c2ccc(-c3cc4ccccc4[nH]3)cc2)cc1`, the TGI in experiment [1], in experiment [3], in [4], in experiment [6], in experiment [7] and in experiment [8] was greater than 100 µM each time. For the same molecule, the TGI in experiment [9], in [10], in [18], in experiment [11], in [12] and in experiment [13] was greater than 100 µM in each case. The TGI in experiment [14], in experiment [15], in experiment [16] and in experiment [17] was greater than 100 µM in each case.

As to `NC1CC(N)c2c(Br)sc(Br)c21` (stereo not given), the TGI in experiment [1], in experiment [3], in [4], in experiment [5], in [6] and in [7] was greater than 100 µM each time. Moreover, the TGI in experiment [8], in experiment [9], in experiment [10], in [11], in experiment [12] and in experiment [13] was greater than 100 µM each time. Also, the TGI in experiment [14], in experiment [15], in experiment [16] and in [17] was greater than 100 µM throughout.

Consider `COc1ccc(Cc2c(N)[nH]c(=O)n(C)c2=O)cc1`, for which the TGI in experiment [1], in [2], in experiment [3], in experiment [4], in experiment [5] and in experiment [6] was greater than 100 µM each time. For the same molecule, the TGI in experiment [7], in experiment [8], in [9], in experiment [10], in [11] and in experiment [12] was greater than 100 µM throughout. For the same molecule, the TGI in experiment [13], in experiment [14], in experiment [15], in [16] and in experiment [17] was greater than 100 µM in each case.
